Experimental data as given in patent EP4810009A1, “MELANOGENESIS INHIBITOR AND EXTERNAL PREPARATION FOR SKIN CONTAINING SAME” (MITSUBISHI GAS CHEMICAL COMPANY, INC., priority 2023, dated 2025).

Experiments:
pig skin = assay: Chemical peeling ability; settings: aqueous solution of 7% by weight of organic acid on pig skin for 24 hours; decrease of stratum corneum thickness
Procedure: An aqueous solution of 7% by weight of organic acid was allowed to act on to pig skin for 24 hours. If the thickness of the stratum corneum decreased by 10% or more, it was evaluated as A; if it decreased by less than 10%, it was evaluated as B.

[1] = test system: Cutibacterium acnes NBRC 107605; assay: Ability to eliminate acne bacteria; format: cell-based; settings: 0.05 mL of aqueous solution of 7% by weight of organic acid added to 5 mL test solution; viable cell count after 60 seconds
Procedure: 0.05 mL of an aqueous solution of 7% by weight of organic acid was added dropwise to 5 mL of a test solution containing the bacterial strain Cutibacterium acnes NBRC 107605 at a concentration of 10^8 CFU/mL. After 60 seconds, if the viable cell count was less than 1%, it was evaluated as A; if the viable cell count was 1% or more, it was evaluated as B. [Table 10]

tyrosinase protein = assay: Tyrosinase protein expression inhibition test (Western blot); format: cell-based; settings: normal human melanocytes; 20 mM; 48 hours; Figure 4
Procedure: (§1) Normal human melanocytes (manufactured by Kurabo Industries Ltd.) were used as melanin-producing cells. As a medium for the cells, Dermalife was used. The cell concentration was adjusted to 3 x 10^5 cells/1.5 mL, and the cells were cultured in a 6-well plate in the presence of 5% carbon dioxide at 37°C for 24 hours.
(§2) As a test sample, NaOH was added to methyl lactic acid to adjust the pH to 6.5, and was used. […]. As a control, Dermalife, into which methyl lactic acid was not added, was used.
The medium was replaced with the test sample (1.5 mL/well) and cultured for 48 hours. After removing the medium, proteins were extracted using M-PER™ Mammalian Protein Extraction Reagent (manufactured by Themo), and were then developed by SDS-PAGE. After the resultant had been transferred onto a polyvinylidene difluoride (PVDF) membrane, the membrane was blocked with 5% skim milk. After a reaction had been performed with an anti-tyrosinase antibody (manufactured by Santa Cruz Biotechnology) for 1 hour, the membrane was further reacted with an HRP-conjugated secondary antibody (manufactured by abcam) for an additional 1 hour. Protein bands were detected using Ez West Blue W (manufactured by ATTO). The signal intensity of the resulting bands was detected using the image processing software ImageJ, and the relative protein expression levels were calculated. […]

B16 melanoma [2] = assay: Cytotoxicity test (Cell counting Kit 8); format: cell-based, mouse; settings: 100 µM methyl lactic acid, one day of culture, Figure 2
Procedure: Cell culture was performed by the same method as that in Example 1 mentioned above.
The test sample was prepared by the same method as that in Example 1 mentioned above.
Cells were detached from the culture obtained under the cell culture conditions described in Example 1, and 0.1 mL of cells and medium were each seeded into a 96-well vessel to a cell concentration of 5 x 10^4 cells/mL. After one day of culture, the medium was removed and replaced with the test sample. After one further day of culture, the vessel was washed with an assay medium, and 0.1 mL each of a 1 : 9 mixed solution of Cell counting Kit 8 and medium was added. After the mixture had been left at rest at 37°C for 30 minutes in the presence of 5% carbon dioxide, the absorbance at 450 nm was measured using a plate reader, and the cell count was calculated.
The cell count (%) is a relative value (%) in a case where the cell count in the negative control (medium alone) is taken as 100%, and for each case, it is an average value of the values measured for 16 samples.

tyrosinase = assay: Tyrosinase biosynthesis inhibitory action test (DOPA-melanin per unit protein in cell lysate); format: cell-based; settings: normal human melanocytes; 2.5, 5, 10, 20, and 40 mM; one day of culture; Figure 3
Procedure: as §1, with “Industries,” for “Industries”, “Dermalife (manufactured by Kurabo Industries, Ltd.)” for “Dermalife”, “10^4 cells/mL,” for “10^5 cells/1.5 mL,”, “96-well” for “6-well”
as §2
The medium was removed from the culture obtained under the aforementioned cell culture conditions and replaced with the test sample. After one day of culture, the medium was removed, and a phosphate buffer containing 0.5% Triton X-100 was added in an amount of 50 µL/well. The cells were lysed by agitation. 50 µL of the cell lysate was mixed with 50 µL of phosphate buffer containing 2 mM DOPA, and the obtained mixture was then incubated at 37°C for 2 hours. The absorbance (measurement wavelength: 405 nm, reference wavelength: 650 nm) was measured, and the amount of DOPA-melanin was calculated from a calibration curve. The amount of the protein was quantified using a BCA protein assay kit (Thermo), and the amount of DOPA-melanin per unit protein was then calculated to confirm tyrosinase biosynthesis inhibitory action. […]

[3] = Solubility in oils and fats (saturated solubility of palmitic acid in organic acid solution); format: physicochemical; settings: palmitic acid in aqueous solution of 50% by weight of organic acid; room temperature (23°C), 24 hours
Procedure: Palmitic acid was added into an aqueous solution of 50% by weight of organic acid, and the mixed solution was then stirred at room temperature (23°C) for 24 hours.

B16 melanoma [4] = assay: Evaluation of melanin production inhibitory activity; format: cell-based, mouse; settings: 100 µM methyl lactic acid, pH 6.5 with NaOH; one day of culture; compared with kojic acid 1 mM positive control; Figure 1
Procedure: As melanin-producing cells, mouse-derived skin melanoma cells, B16 melanoma (JCRB0202, purchased from JCRB Cell Bank) were used. As a medium for cell culture, 500 mL of E-MEM medium was mixed with 5 mL of x 100 penicillin-streptomycin solution and 100 mL of inactivated fetal bovine serum (manufactured by West Bio), and the resulting medium was used. For the subculture of cells, the cells were washed with a phosphate buffer (manufactured by GIBCO), and were detached from the vessel with 0.25% trypsin and EDTA (ethylenediaminetetraacetic acid), followed by addition of a medium, and the obtained mixture was centrifugated to separate the cels. To ensure stable cell culture, the cell concentration was adjusted to 5 to 16 x 10^4 cells/mL, and the cells were then cultured in a 10-cm petri dish or a plastic culture flask (175 cm^2) in the presence of 5% carbon dioxide at 37°C. […] The absorbance at 450 nm was measured using a plate reader, and the melanin concentration was calculated. […] The melanin production percentage (%) shown in Figure 1 is a relative value (%) in a case where the melanin concentration in the negative control is taken as 100%, and for each case, it is an average value of the values measured for 12 samples.

tyrosinase mRNA = assay: Evaluation of suppression of melanin synthesis-related factor mRNA expression (Real-time PCR); format: cell-based; settings: normal human melanocytes; 10 and 20 mM; 24 hours; Figure 5
Procedure: Normal human melanocytes (manufactured by Kurabo Industries, Ltd.) were used as melanin-producing cells. As a medium for the cells, […] was used. The cell concentration was adjusted to 3 x 10^4 cells/mL, and the cells were cultured in a 96-well plate in the presence of 5% carbon dioxide at 37°C for 24 hours. As a test sample, NaOH was added to methyl lactic acid to adjust the pH to 6.5, and was used. […] As a control, […], into which methyl lactic acid was not added, was used. The medium was replaced with the test sample (100 μL/well) and cultured for 24 hours. After removing the medium, RNA was extracted using Cells-to-Ct kit (manufactured by Themo), and was then subjected to reverse transcription to synthesize cDNA. Using the resulting cDNA, Real-time PCR was carried out, and the relative expression level of mRNA was calculated. In Figure 5, "Control" is a negative control, which uses a medium without the test sample.

[5] = Solubility in oils (saturated solubility of oleic acid in organic acid solution); format: physicochemical; settings: oleic acid in aqueous solution of 50% by weight of organic acid; room temperature (23°C), 24 hours
Procedure: Oleic acid was added into an aqueous solution of 50% by weight of organic acid, and the mixed solution was then stirred at room temperature (23°C) for 24 hours.

Row | SMILES | Chemical peeling ability (pig skin) | Ability to eliminate acne bacteria [1] | tyrosinase protein expression inhibitory action (relative expression level of tyrosinase protein) (tyrosinase protein) | cytotoxicity (cell count) (B16 melanoma [2]) | tyrosinase biosynthesis inhibitory action (DOPA-melanin per unit protein) (tyrosinase) | Solubility in oils and fats [3] | melanogenesis-inhibiting effect (melanin production percentage) (B16 melanoma [4]) | tyrosinase mRNA expression-suppressing action (relative expression level of tyrosinase mRNA) (tyrosinase mRNA) | Solubility in oils [5]
1 | O=C(O)CO [Glvcolic acid] | A (If the thickness of the stratum corneum decreased by 10% or more, it was evaluated as A) | A (if the viable cell count was less than 1%, it was evaluated as A) | – | – | – | – | – | – | –
2 | CC(O)C(=O)O (centres unmarked) [Lactic acid] | A (If the thickness of the stratum corneum decreased by 10% or more, it was evaluated as A) | A (if the viable cell count was less than 1%, it was evaluated as A) | – | – | – | – | – | – | –
3 | CC(C)(O)C(=O)O [Methyl lactic acid, 2-hydroxyisobutyric acid] | A (If the thickness of the stratum corneum decreased by 10% or more, it was evaluated as A) | A (if the viable cell count was less than 1%, it was evaluated as A) | a tyrosinase protein expression inhibitory action was exhibited | cytotoxicity was not confirmed | a tyrosinase biosynthesis inhibitory action was exhibited in a dose-dependent manner | A (if the saturated solubility of palmitic acid was 20 ppm or more, it was evaluated as A) | the same melanogenesis-inhibiting effect as the addition of kojic acid | exhibited a tyrosinase mRNA expression-suppressing action | A (if the saturated solubility of oleic acid was 200 ppm or more, it was evaluated as A)
4 | O=c1cc(CO)occ1O [Kojic acid, reference compound] | B (if it decreased by less than 10%, it was evaluated as B) | B (if the viable cell count was 1% or more, it was evaluated as B) | – | – | – | B (if it was less than 20 ppm, it was evaluated as B) | – | – | B (if it was less than 200 ppm, it was evaluated as B)
